Experimental data: publication PMC4349132 (Medchemcomm, 2014)

Key:
EZH2 = EZH2 (Homo sapiens, UniProt Q15910); conditions: at the highest concentrations surveyed (50 μM)
[1] = biological target: GLP (G9a-like protein, EHMT1) (Homo sapiens, UniProt Q9H9B1); conditions: compared with G9a
SETD2 = SETD2 (Homo sapiens, UniProt Q9BYW2); conditions: at the highest concentrations surveyed (50 μM)
[2] = tested on: all other methyltransferases in the panel; conditions: panel other than G9a, GLP, SETD2, EZH2
G9a = G9a (Homo sapiens, UniProt Q96KQ7); conditions: SPA assay
[3] = Henderson–Hasselbalch equation, assay conditions pH 8

Sequence of GLP (G9a-like protein, EHMT1) (Q9H9B1 whole entry): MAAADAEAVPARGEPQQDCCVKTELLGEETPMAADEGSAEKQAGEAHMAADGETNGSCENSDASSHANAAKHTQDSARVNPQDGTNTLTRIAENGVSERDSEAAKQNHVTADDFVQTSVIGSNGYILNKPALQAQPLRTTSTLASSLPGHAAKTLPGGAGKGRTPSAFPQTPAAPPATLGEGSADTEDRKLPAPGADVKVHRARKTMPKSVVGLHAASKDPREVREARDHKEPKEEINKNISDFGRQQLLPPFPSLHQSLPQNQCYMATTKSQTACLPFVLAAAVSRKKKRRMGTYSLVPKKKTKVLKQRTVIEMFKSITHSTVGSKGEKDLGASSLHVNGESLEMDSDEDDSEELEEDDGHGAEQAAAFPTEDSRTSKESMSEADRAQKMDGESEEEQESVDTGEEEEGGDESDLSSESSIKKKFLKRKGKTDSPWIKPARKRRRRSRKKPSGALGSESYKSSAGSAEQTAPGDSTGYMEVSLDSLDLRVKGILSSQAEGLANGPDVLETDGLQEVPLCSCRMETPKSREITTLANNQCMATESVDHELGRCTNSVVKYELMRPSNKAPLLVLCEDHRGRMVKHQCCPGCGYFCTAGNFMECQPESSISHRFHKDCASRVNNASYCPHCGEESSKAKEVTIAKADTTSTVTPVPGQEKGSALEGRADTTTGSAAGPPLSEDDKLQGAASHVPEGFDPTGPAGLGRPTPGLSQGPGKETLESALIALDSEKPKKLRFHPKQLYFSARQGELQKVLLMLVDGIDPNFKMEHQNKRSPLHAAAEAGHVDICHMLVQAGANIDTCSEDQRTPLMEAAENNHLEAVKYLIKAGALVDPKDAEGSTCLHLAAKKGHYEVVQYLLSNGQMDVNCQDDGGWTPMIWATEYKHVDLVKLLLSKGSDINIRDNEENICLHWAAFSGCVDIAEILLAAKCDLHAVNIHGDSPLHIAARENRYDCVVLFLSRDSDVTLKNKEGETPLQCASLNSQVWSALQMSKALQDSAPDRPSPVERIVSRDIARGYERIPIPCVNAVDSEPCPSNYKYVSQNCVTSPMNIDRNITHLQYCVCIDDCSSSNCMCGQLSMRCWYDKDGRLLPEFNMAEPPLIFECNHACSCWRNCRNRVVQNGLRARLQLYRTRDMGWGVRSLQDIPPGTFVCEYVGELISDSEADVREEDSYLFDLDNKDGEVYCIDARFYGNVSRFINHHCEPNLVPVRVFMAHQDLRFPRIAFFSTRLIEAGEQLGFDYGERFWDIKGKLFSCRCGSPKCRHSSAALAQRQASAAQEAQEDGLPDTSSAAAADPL
Sequence of SETD2 (Q9BYW2 whole entry, species assumed): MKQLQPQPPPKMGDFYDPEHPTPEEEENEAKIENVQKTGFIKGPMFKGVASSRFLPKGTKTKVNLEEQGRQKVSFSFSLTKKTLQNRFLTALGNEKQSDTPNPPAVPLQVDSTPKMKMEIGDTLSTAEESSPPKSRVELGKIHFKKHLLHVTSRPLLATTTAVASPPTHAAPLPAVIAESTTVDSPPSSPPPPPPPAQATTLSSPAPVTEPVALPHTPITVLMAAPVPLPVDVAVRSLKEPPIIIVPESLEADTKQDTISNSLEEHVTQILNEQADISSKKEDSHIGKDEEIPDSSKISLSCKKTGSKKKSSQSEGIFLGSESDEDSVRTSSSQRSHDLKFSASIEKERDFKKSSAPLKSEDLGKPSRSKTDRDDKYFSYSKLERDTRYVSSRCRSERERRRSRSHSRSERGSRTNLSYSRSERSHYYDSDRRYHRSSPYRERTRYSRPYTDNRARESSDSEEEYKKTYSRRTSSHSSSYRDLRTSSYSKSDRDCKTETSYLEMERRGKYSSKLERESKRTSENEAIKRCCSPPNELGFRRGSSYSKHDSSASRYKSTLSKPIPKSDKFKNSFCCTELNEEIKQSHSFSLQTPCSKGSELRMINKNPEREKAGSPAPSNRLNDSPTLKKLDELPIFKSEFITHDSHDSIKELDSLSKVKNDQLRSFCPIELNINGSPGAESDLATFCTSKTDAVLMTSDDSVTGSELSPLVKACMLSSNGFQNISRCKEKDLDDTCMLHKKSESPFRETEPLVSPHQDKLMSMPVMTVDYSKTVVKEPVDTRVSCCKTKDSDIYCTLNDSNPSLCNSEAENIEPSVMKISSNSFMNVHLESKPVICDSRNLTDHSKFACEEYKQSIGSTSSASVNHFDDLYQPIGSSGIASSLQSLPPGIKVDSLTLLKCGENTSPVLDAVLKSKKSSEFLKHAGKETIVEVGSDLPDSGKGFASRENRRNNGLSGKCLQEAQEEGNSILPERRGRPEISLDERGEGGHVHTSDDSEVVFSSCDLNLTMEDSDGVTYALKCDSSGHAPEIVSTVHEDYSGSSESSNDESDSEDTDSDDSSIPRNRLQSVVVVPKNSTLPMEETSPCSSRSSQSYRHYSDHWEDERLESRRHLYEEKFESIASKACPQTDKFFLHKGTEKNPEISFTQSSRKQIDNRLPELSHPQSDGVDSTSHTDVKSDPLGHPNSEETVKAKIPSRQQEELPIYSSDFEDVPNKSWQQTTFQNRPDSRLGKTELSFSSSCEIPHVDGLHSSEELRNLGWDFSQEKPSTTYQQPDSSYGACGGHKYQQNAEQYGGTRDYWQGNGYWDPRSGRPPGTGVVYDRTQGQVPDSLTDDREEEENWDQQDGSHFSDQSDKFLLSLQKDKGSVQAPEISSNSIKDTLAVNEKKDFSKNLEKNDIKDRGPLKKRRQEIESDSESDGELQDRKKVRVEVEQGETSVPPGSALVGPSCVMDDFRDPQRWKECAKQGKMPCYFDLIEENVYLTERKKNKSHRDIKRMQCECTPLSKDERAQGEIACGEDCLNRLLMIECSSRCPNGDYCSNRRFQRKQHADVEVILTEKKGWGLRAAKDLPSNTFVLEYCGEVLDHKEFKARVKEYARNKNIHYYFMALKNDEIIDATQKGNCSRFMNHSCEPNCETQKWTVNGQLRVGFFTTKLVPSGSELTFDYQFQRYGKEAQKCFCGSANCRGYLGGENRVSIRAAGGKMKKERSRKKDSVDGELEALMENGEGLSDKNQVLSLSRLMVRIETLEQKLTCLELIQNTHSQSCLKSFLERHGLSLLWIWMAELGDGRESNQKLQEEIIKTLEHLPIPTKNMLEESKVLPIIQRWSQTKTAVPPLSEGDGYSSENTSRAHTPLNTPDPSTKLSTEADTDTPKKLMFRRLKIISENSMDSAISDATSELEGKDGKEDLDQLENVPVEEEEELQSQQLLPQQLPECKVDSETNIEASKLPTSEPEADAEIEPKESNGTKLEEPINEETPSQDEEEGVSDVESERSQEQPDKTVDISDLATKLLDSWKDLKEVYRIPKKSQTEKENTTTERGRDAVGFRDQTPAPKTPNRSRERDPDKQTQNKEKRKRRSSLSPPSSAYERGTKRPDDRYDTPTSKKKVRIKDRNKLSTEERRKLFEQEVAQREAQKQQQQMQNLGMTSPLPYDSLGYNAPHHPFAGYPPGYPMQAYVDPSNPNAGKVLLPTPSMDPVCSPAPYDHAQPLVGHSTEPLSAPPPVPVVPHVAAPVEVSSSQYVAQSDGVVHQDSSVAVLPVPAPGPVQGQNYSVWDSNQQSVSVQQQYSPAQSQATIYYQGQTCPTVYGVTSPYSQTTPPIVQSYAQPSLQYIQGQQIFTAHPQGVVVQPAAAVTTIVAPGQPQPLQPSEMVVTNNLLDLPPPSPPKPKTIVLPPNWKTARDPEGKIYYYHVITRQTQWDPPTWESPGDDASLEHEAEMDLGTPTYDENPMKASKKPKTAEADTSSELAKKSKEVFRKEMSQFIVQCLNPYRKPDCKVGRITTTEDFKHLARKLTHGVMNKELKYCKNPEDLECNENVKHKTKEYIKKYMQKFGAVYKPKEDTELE
Sequence of G9a (Q96KQ7 whole entry): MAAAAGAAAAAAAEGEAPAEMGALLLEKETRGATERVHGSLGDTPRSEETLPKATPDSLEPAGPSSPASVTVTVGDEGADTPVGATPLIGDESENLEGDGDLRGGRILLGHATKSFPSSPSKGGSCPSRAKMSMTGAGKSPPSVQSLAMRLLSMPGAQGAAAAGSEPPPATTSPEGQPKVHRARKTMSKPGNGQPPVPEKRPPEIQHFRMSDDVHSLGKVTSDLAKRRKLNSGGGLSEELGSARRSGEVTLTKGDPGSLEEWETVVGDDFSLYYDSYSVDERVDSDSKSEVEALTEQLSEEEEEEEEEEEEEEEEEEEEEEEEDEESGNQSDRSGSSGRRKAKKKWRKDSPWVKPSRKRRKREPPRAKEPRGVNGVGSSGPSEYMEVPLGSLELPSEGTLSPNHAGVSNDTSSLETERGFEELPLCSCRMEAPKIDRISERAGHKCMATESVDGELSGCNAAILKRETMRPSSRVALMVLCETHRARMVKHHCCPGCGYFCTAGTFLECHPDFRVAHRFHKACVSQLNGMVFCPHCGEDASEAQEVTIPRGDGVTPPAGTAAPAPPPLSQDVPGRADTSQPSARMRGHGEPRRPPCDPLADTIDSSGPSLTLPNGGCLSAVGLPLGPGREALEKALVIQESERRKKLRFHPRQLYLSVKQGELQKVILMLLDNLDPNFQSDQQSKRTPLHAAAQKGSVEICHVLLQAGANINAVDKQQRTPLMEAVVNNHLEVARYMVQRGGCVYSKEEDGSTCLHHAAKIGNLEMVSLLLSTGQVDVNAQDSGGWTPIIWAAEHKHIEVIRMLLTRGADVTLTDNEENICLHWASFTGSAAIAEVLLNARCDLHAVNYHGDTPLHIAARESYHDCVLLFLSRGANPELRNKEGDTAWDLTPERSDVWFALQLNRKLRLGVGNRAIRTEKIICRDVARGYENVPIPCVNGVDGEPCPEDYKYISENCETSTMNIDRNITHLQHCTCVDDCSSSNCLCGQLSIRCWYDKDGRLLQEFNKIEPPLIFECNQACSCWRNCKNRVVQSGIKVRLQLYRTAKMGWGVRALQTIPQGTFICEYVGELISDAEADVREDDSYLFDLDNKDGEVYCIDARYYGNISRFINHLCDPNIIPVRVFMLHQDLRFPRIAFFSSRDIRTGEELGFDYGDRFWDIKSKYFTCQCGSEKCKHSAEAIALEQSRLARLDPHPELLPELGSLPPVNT

COc1cc2nc(N3CCN(C)CC3)cc(NC3CCN(Cc4ccccc4)CC3)c2cc1OC [Compound 42]
activity against EZH2 (in words) (EZH2): moderate inhibitory activity | activity against GLP (in words) [1]: equipotent against G9a and GLP | activity against SETD2 (in words) (SETD2): moderate inhibitory activity | activity against all other methyltransferases in the panel (in words) [2]: inactive | G9a inhibitory activity (in words) (G9a): significant activity

COc1cc2nc(N3CCCN(C)CC3)cc(NC3CCN(Cc4ccccc4)CC3)c2cc1OC [Compound 41]
activity against EZH2 (in words) (EZH2): moderate inhibitory activity | activity against GLP (in words) [1]: equipotent against G9a and GLP | activity against SETD2 (in words) (SETD2): moderate inhibitory activity | N-1 protonated form [3]: 96.9% | activity against all other methyltransferases in the panel (in words) [2]: inactive | G9a inhibitory activity (in words) (G9a): significant activity

COc1cc2nc(N3CCCN(C)CC3)nc(NC3CCN(Cc4ccccc4)CC3)c2cc1OC [Compound 1, BIX-01294, reference compound]
activity against GLP (in words) [1]: dual G9a/GLP activity | N-1 protonated form [3]: 8.0%
